Results: patent publication US12187705B2, “Heteroaryl-triazole and heteroaryl-tetrazole compounds as pesticides” (Bayer Aktiengesellschaft, priority 2018, dated 2025)

What was measured:
Assay type in all cases: in vivo
[1] = system: Boophilus microplus; assay: Boophilus microplus injection test; conditions: Rhipicephalus microplus, 168 h, 20 μg/animal, egg deposition after 7 days, read-out: efficacy (infertile eggs)
Outline: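 Engorged adult female ticks, five per dose, received 1 μl of compound in DMSO injected into the abdomen and were kept in a climate chamber. Fertile egg deposition was checked after 7 days, with eggs of unclear fertility held until hatching at about 42 days. Efficacy 100% = all eggs infertile, 0% = all fertile.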

[2] = system: Diabrotica balteata; assay: Diabrotica balteata spray test; conditions: Diabrotica balteata, 168 h; 160 μg/well, wheat seeds, after 7 days; read-out: efficacy (seedlings grown)
Outline: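 Wheat seeds germinated 1 day on agar were sprayed with compound diluted in water with 1000 ppm emulsifier, then infested with 10-20 Diabrotica balteata larvae. Efficacy in % scored after 7 days: 100% = seedlings grown as untreated, uninfected control; 0% = no seedlings grown.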

[3] = system: Myzus persicae; assay: Myzus persicae oral test; conditions: 120 h
Outline: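 Feeding test: compound diluted in water was combined with IPL41 insect medium (33%+15% sugar) under a parafilm seal. A mixed population of green peach aphids fed through the membrane. Mortality (%) was scored after 5 days.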

[4] = system: Myzus persicae; assay: Myzus persicae spray test; conditions: in Brassica rapa, foliar, 120 h
Outline: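 Chinese cabbage leaf disks infested with all aphid instars were sprayed with compound diluted in water containing emulsifier (1000 ppm). Mortality (%) was scored after 5 days, 100% meaning all aphids killed.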

[5] = system: Nezara viridula; assay: Nezara viridula spray test; conditions: in Hordeum vulgare, 96 h
Outline: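 Barley plants infested with stink bug larvae were sprayed with compound diluted in water containing 1000 ppm emulsifier. Mortality (%) was scored after 4 days, 100% meaning all bugs killed.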

[6] = system: Nilaparvata lugens; assay: Nilaparvata lugens spray test; conditions: Nilaparvata lugens, in Oryza sativa, 96 h
Outline: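 Rice plants sprayed with compound diluted in water containing 1000 ppm emulsifier, then infested with brown planthopper. Mortality (%) scored after 4 days, 100% meaning all insects killed.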

[7] = system: Spodoptera frugiperda; assay: Spodoptera frugiperda spray test; conditions: in Zea mays, 168 h
Outline: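 Caterpillars are placed on sprayed, dried maize leaf sections. Sprays contain compound diluted in water with emulsifier at 1000 ppm; mortality in % is determined 7 days later.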

[8] = system: Tetranychus urticae; assay: Tetranychus urticae spray test OP-resistant; conditions: Tetranychus urticae, foliar, 144 h, French bean leaf disks, after 6 days
Procedure: Tetranychus urticae—Spray Test OP-Resistant
To produce a suitable preparation of active compound, 1 part by weight of active compound is mixed with the stated amount of solvents and is diluted with water, containing an emulsifier concentration of 1000 ppm, to the desired concentration. Further test concentrations are prepared by dilution with emulsifier containing water.
French bean (Phaseolus vulgaris) leaf disks infected with all instars of the two spotted spidermite (Tetranychus urticae), are sprayed with a preparation of the active ingredient of the desired concentration.
After 6 days mortality in % is determined. 100% means all spider mites have been killed and 0% means none of the spider mites have been killed.

[9] = system: Aedes aegypti strain MONHEIM; assay: Aedes aegypti test (AEDSAE surface treatment & contact assay); conditions: 24 hours after contact, read-out: efficacy (mortality); for mortality at 4 mg/m2: surface concentration 4 mg/m^2, 30 minutes exposure; for mortality at 20 mg/m2: surface concentration 20 mg/m^2, 30 minutes exposure
Outline: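 Compound dissolved in acetone (2 mg/ml) with 2000 ppm rapeseed oil methyl ester and dried onto a glazed tile. Adult mosquitoes held on the treated surface for 30 minutes exposure. Percent mortality scored 24 hours after contact.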

[10] = system: Culex quinquefasciatus strain P00; assay: Culex quinquefasciatus test (CULXFA surface treatment & contact assay); conditions: 24 hours after contact, read-out: efficacy (mortality); for mortality at 4 mg/m2: surface concentration 4 mg/m^2, 30 minutes exposure; for mortality at 20 mg/m2: surface concentration 20 mg/m^2, 30 minutes exposure
Outline: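 Compound dissolved in acetone (2 mg/ml) with 2000 ppm rapeseed oil methyl ester, applied to glazed tile and dried. Adult strain P00 mosquitoes exposed to the surface for 30 minutes. Percent mortality scored 24 hours after contact.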

[11] = system: Musca domestica strain WHO-N; assay: Musca domestica test (MUSCDO surface treatment & contact assay); conditions: 24 hours after contact, read-out: efficacy (mortality); for mortality at 20 mg/m2: surface concentration 20 mg/m^2, 30 minutes exposure
Procedure: Musca domestica Test (MUSCDO Surface Treatment & Contact Assay)
Solvent: Aceton+2000 ppm rapeseed oil methyl ester (RME)
In order to produce a sufficient, active ingredient containing solution it is necessary to solve the test-compound in the solvent-mix (Acetone at 2 mg/ml/RME 2000 ppm). This solution is pipetted onto a glazed tile and after evaporation of the Acetone, adult flies of the species Musca domestica strain WHO-N are placed onto the dried surface. The exposure time is 30 minutes.
Mortality in percent (%) is determined 24 hours after contact to the treated surface. 100% mortality means that all test-insects are dead, whereas 0% means that not a single insect died.

Row | Compound | pest or weed control at 0.02 mg [1] | pest or weed control at 160 µg/disc, 160 µg/well [2] | mortality at 4 ppm [3] | mortality at 500 g/ha [4] | mortality at 500 g/ha [5] | mortality at 500 g/ha [6] | mortality at 500 g/ha [7] | mortality at 500 g/ha [8] | mortality at 4 mg/m2 [9] | mortality at 20 mg/m2 [9] | mortality at 4 mg/m2 [10] | mortality at 20 mg/m2 [10] | mortality at 20 mg/m2 [11] | mortality at 4 mg/m2 ([11]; surface concentration 4 mg/m^2, 30 minutes exposure)
1 | CCN(C(=O)c1cc(Cl)cc(S(C)(=O)=O)c1)C(C)c1ncnn1-c1ncccn1 (stereo not drawn) [Example I-040, 3-chloro-N-ethyl-5-(methylsulfonyl)-N-{1-[1-(pyrimidin-2-yl)-1H-1,2,4-triazol-5-yl]ethyl}benzamide] | 100% | 100% | 100% | 90% | 100% | 100% | 100% | 90% | 80 to 100% | 90 to 100% | 80 to 100% | 80 to 100% | 80 to 100% | –
2 | C[C@@H](NC(=O)c1cc(Cl)cc(S(=O)(=O)C2CC2)c1)c1ncnn1-c1ncccn1 [Example I-042] | 100% | 100% | 100% | 90% | 100% | 100% | 83% | 90% | 80 to 100% | 90 to 100% | 80 to 100% | 80 to 100% | 80 to 100% | 80 to 100%
